Data taken from ChEMBL document CHEMBL4765237, “Structural optimization and structure-activity relationship studies of N-phenyl-7,8-dihydro-6H-pyrimido[5,4-b][1,4]oxazin-4-amine derivatives as a new class of inhibitors of RET and its drug resistance mutants” (Eur J Med Chem, 2018).

Experiments:
Ephrin type-A receptor 3 = Ephrin type-A receptor 3 (Homo sapiens, UniProt P29320); assay: Inhibition of recombinant human EphA3 (578 to end residues) using poly(Glu, Tyr) 4:1 as substrate incubated for 40 mins in presence of [gamma-33ATP] by scintillation counting based radiometry assay
[1] = target: Mitogen-activated protein kinase kinase kinase 7 (Homo sapiens, UniProt O43318); assay: Inhibition of recombinant human TAK1 (1 to 303 residues) using casein as substrate incubated for 40 mins in presence of [gamma33P]ATP by scintillation counting based radiometry assay
MGC-803 = assay: Growth inhibition of human MGC-803 cells incubated for 3 days by MTT assay; format: functional; conditions: MGC-803, 72 h, time 3 day
[2] = target: Fibroblast growth factor receptor 1 (Homo sapiens, UniProt P11362)
MDA-MB-231 = assay: Growth inhibition of human MDA-MB-231 cells incubated for 3 days by MTT assay; format: functional; conditions: MDA-MB-231, 72 h, time 3 day
[3] = target: Tyrosine-protein kinase FRK (Homo sapiens, UniProt P42685); assay: Inhibition of recombinant human PTK5 (218 to end residues) using GGEEEEYFELVKKKK as substrate incubated for 40 mins in presence of [gamma33P]ATP by scintillation counting based radiometry assay
Aurora kinase B = Aurora kinase B (Homo sapiens, UniProt Q96GD4); assay: Inhibition of recombinant full length human Aurora B using AKRRRLSSLRA as substrate incubated for 40 mins in presence of [gamma-33ATP] by scintillation counting based radiometry assay
Ephrin type-B receptor 2 = Ephrin type-B receptor 2 (Homo sapiens, UniProt P29323); assay: Inhibition of recombinant human EphB2 (560 to end residues) using poly(Glu, Tyr) 4:1 as substrate incubated for 40 mins in presence of [gamma-33ATP] by scintillation counting based radiometry assay
CDK9/cyclin T1 = CDK9/cyclin T1 (Homo sapiens, UniProt P50750); assay: Inhibition of recombinant full length human CDK9/cyclinT1 using KTFCGTPEYLAPE as substrate incubated for 40 mins in presence of [gamma-33ATP] by scintillation counting based radiometry assay; format: protein-complex assay
[4] = Growth inhibition of human H4 cells incubated for 3 days by MTT assay; format: functional; conditions: H4, 72 h, time 3 day
HepG2 = assay: Growth inhibition of human HepG2 cells incubated for 3 days by MTT assay; format: functional; conditions: HepG2, 72 h, time 3 day
L02 = assay: Growth inhibition of human L02 cells incubated for 3 days by MTT assay; format: functional; conditions: L02, 72 h, time 3 day
[5] = target: High affinity nerve growth factor receptor (Homo sapiens, UniProt P04629)
[6] = target: Proto-oncogene tyrosine-protein kinase receptor Ret (Homo sapiens, UniProt P07949, V804M)
Ephrin type-A receptor 7 = Ephrin type-A receptor 7 (Homo sapiens, UniProt Q15375); assay: Inhibition of recombinant human EphA7 (613 to 909 residues) using KTFCGTPEYLAPEVRREPRILSEEEQEMFRDFDYIADWC as substrate incubated for 40 mins in presence of [gamma-33ATP] by scintillation counting based radiometry assay
[7] = target: Serine/threonine-protein kinase TAO2 (Homo sapiens, UniProt Q9UL54); assay: Inhibition of recombinant human TAO2 (1 to 320 residues) using myelin basic protein as substrate incubated for 40 mins in presence of [gamma33P]ATP by scintillation counting based radiometry assay
[8] = target: Vascular endothelial growth factor receptor 2 (Homo sapiens, UniProt P35968); assay: Inhibition of human KDR (790 to end residues) using myelin basic protein as substrate after 40 mins by [gamma-33ATP] radiometric assay
[9] = Growth inhibition of […] BaF3 cells harboring BCR abl mutant incubated for 3 days by MTT assay; format: functional; conditions: BaF3, 72 h; time 3 day
[10] = Volume of distribution at steady state in Sprague-Dawley rat at 10 mg/kg, po measured upto 24 hrs by LC-MS/MS analysis; format: ADME, organism-based; conditions: in vivo
[11] = Tmax in Sprague-Dawley rat at 10 mg/kg, po measured upto 24 hrs by LC-MS/MS analysis; format: ADME, organism-based; conditions: in vivo
[12] = target: Macrophage colony-stimulating factor 1 receptor (Homo sapiens, UniProt P07333)
[13] = Growth inhibition of human Ocut-2C cells incubated for 3 days by MTT assay; format: functional; conditions: OCUT2C, 72 h, time 3 day
[14] = target: MAP kinase-interacting serine/threonine-protein kinase 2 (Homo sapiens, UniProt Q9HBH9); assay: Inhibition of recombinant human MNK2 using myelin basic protein as substrate incubated for 40 mins in presence of [gamma-33ATP by scintillation counting based radiometry assay
HGC-27 = assay: Growth inhibition of human HGC-27 cells incubated for 3 days by MTT assay; format: functional; conditions: HGC-27, 72 h, time 3 day
[15] = target: Serine/threonine-protein kinase Nek9 (Homo sapiens, UniProt Q8TD19); assay: Inhibition of recombinant human NEK9 (1 to 324 residues) using myelin basic protein as substrate measured after 40 mins in presence of [gamma33P]ATP by scintillation counting based radiometry assay
[16] = Growth inhibition of human HTH-83 cells incubated for 3 days by MTT assay; format: functional; conditions: HTh83, 72 h, time 3 day
[17] = target: Vascular endothelial growth factor receptor 3 (Homo sapiens, UniProt P35916); assay: Inhibition of recombinant human FLT4 (800 to end residues) using GGEEEEYFELVKKKK as substrate incubated for 40 mins in presence of [gamma-33ATP] by scintillation counting based radiometry assay
SGC-7901 = assay: Growth inhibition of human SGC-7901 cells incubated for 3 days by MTT assay; format: functional; conditions: SGC-7901, 72 h, time 3 day
NCI-H1975 = assay: Growth inhibition of human NCI-H1975 cells incubated for 3 days by MTT assay; format: functional; conditions: NCI-H1975, 72 h, time 3 day
[18] = target: Tyrosine-protein kinase receptor UFO (Homo sapiens, UniProt P30530); assay: Inhibition of recombinant human Axl (473 to end residues) using KKSRGDYMTMQIG as substrate incubated for 40 mins in presence of [gamma-33ATP] by scintillation counting based radiometry assay
[19] = target: TRAF2 and NCK-interacting protein kinase (Homo sapiens, UniProt Q9UKE5); assay: Inhibition of human TNIK (1 to 367 residues) using RLGRDKYKTLRQIRQ as substrate incubated for 40 mins in presence of [gamma33P]ATP by scintillation counting based radiometry assay
BGC-823 = assay: Growth inhibition of human BGC-823 cells incubated for 3 days by MTT assay; format: functional; conditions: BGC-823, 72 h, time 3 day
[20] = target: Mitogen-activated protein kinase kinase kinase 20 (Homo sapiens, UniProt Q9NYL2); assay: Inhibition of recombinant full-length human ZAK using MBP as substrate incubated for 40 mins in presence of [gamma33P]ATP by scintillation counting based radiometry assay
[21] = target: Proto-oncogene tyrosine-protein kinase receptor Ret (Homo sapiens, UniProt P07949)
Proto-oncogene tyrosine-protein kinase receptor Ret (Homo sapiens, UniProt P07949), sequence (P07949 whole entry): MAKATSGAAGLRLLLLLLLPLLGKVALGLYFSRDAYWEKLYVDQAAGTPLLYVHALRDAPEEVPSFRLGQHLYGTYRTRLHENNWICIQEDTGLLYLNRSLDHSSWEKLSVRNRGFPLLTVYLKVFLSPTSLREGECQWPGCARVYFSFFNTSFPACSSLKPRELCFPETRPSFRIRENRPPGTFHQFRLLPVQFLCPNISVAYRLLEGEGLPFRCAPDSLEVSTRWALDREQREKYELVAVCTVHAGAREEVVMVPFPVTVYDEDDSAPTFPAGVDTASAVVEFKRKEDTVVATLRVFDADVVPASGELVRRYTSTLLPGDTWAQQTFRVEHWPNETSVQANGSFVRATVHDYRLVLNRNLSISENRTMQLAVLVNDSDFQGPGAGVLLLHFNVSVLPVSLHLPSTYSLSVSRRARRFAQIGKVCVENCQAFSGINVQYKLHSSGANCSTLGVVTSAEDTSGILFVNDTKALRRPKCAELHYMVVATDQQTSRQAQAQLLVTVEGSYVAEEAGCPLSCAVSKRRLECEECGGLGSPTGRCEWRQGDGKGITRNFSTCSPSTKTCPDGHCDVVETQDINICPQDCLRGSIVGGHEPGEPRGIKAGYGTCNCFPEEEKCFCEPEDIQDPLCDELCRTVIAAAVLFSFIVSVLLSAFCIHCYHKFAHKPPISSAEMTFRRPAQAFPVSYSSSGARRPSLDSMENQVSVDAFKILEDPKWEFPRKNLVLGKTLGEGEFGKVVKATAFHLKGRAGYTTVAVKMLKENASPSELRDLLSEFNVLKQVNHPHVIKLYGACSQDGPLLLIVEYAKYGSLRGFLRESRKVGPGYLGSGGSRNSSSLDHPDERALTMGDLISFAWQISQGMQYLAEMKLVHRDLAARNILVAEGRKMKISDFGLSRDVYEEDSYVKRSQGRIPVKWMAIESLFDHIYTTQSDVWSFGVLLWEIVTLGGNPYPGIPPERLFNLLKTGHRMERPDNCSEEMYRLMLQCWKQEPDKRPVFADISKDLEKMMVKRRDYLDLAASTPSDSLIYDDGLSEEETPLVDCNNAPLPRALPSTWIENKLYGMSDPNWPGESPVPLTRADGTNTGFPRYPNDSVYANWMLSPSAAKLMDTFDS

Serine/threonine-protein kinase Nek9, sequence (Q8TD19 whole entry, the tested form may be a part): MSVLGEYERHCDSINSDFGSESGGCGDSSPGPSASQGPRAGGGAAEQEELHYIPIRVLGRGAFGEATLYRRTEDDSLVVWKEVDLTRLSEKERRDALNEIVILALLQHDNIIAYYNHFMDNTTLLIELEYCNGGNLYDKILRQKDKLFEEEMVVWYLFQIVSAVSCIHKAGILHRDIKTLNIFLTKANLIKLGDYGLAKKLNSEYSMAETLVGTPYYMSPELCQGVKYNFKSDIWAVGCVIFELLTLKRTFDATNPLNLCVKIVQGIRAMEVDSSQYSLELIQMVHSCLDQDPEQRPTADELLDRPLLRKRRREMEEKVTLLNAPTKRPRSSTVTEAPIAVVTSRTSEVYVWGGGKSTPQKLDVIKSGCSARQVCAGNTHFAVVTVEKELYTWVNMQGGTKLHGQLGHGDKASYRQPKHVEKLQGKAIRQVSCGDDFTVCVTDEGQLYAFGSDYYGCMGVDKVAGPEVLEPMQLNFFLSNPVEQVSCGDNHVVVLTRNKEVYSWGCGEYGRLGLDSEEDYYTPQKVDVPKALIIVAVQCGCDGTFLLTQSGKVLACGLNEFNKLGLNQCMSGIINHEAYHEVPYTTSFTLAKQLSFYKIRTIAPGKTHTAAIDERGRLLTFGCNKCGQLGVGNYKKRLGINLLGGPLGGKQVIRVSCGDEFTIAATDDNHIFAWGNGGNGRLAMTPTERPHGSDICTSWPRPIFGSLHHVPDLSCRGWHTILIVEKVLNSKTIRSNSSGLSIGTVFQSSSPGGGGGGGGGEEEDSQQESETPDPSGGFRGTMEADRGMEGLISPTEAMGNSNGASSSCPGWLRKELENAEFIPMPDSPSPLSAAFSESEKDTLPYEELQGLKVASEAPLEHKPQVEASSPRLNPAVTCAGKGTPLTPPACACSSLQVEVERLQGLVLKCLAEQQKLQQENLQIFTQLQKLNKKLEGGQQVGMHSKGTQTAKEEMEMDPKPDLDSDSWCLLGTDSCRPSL
Mitogen-activated protein kinase kinase kinase 7, sequence (O43318 whole entry, the tested form may be a part): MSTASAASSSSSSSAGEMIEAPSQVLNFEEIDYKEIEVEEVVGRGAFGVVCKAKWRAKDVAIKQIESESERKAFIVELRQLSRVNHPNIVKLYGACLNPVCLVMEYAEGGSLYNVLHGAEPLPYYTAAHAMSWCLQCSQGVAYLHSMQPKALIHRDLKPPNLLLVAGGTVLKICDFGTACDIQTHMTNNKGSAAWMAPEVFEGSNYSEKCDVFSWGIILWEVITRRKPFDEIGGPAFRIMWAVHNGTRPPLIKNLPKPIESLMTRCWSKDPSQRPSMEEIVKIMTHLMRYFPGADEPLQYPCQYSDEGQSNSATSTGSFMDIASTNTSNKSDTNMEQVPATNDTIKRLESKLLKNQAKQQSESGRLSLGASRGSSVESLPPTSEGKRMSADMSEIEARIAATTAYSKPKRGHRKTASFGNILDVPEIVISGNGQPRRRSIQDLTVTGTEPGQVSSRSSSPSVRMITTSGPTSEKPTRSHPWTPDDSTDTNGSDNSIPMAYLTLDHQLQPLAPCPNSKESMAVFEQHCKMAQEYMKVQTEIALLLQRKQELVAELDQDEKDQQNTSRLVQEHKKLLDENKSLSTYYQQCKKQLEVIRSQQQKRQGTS
Fibroblast growth factor receptor 1, sequence (P11362 whole entry): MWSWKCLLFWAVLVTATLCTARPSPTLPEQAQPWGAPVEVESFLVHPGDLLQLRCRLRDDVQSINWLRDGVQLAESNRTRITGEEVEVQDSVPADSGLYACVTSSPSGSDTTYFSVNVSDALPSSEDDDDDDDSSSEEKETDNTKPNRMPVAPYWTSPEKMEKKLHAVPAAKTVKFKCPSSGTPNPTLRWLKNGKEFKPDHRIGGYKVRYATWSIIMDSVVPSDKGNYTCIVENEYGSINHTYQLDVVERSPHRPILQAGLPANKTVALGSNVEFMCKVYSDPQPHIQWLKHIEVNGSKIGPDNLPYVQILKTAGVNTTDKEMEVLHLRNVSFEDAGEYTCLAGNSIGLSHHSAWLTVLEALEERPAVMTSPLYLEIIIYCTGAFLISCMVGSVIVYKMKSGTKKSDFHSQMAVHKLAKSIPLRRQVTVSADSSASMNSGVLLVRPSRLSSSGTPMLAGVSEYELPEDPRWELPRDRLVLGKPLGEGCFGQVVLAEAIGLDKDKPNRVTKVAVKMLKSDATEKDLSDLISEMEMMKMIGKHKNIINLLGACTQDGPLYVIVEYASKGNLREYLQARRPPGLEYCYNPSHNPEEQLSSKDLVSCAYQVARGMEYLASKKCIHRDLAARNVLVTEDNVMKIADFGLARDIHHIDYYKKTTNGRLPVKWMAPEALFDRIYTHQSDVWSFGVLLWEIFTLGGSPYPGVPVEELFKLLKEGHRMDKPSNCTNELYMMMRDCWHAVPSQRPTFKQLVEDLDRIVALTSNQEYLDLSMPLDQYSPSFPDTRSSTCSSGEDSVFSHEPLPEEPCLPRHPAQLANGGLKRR
High affinity nerve growth factor receptor, sequence (P04629 whole entry): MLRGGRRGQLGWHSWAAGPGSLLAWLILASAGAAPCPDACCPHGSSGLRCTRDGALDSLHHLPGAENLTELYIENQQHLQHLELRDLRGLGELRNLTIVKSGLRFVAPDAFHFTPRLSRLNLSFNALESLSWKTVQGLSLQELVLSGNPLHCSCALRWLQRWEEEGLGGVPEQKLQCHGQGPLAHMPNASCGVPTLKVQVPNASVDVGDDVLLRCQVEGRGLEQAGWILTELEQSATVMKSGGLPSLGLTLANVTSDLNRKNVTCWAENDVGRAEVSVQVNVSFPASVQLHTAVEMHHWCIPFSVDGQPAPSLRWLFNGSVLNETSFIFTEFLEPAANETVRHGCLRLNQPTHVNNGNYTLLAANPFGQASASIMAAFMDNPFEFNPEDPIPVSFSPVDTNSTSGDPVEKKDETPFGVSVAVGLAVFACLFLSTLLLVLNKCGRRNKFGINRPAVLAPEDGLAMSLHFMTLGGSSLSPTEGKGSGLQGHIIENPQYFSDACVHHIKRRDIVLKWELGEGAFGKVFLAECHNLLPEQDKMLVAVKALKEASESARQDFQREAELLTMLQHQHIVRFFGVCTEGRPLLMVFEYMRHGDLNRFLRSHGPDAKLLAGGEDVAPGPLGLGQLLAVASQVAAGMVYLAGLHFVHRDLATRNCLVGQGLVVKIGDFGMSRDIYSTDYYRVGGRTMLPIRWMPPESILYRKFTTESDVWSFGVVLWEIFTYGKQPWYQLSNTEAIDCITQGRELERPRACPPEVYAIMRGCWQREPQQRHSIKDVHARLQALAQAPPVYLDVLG
Aurora kinase B, sequence (Q96GD4 whole entry): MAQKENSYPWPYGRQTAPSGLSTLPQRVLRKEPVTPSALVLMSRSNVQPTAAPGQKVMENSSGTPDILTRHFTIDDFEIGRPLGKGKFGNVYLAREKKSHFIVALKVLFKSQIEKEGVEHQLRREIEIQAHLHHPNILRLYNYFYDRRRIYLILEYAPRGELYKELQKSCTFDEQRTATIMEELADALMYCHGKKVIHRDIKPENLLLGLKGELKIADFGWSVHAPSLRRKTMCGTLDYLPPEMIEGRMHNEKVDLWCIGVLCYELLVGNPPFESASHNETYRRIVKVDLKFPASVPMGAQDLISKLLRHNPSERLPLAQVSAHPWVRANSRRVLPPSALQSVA

`CC(C)(C)c1cc(NC(=O)Nc2ccc(Nc3ncnc4c3OCCCN4)cc2)no1` gave an IC50 (Ephrin type-A receptor 3) of 552 nM, an IC50 [1] of 484 nM and a GI50 (MGC-803) of 4310 nM. It also gave an IC50 [2] of 868 nM, a GI50 (MDA-MB-231) of over 10000 nM and an IC50 [3] of 51 nM. The IC50 (Aurora kinase B) was 1630 nM, the IC50 (Ephrin type-B receptor 2) was 1090 nM and the IC50 (CDK9/cyclin T1) was 833 nM. It also gave a GI50 [4] of over 10000 nM, a GI50 (HepG2) of over 10000 nM and a GI50 (L02) of over 10000 nM. It also gave an IC50 [5] of 71 nM, an IC50 [6] of 15 nM and an IC50 (Ephrin type-A receptor 7) of 199 nM. It also gave an IC50 [7] of 903 nM, an IC50 [8] of 892 nM and a GI50 [9] of over 10000 nM. For the same compound, the Vdss [10] was 0.05 L/kg, the Tmax [11] was 15 min and the IC50 [12] was 9 nM. The GI50 [13] was over 10000 nM, the IC50 [14] was 136 nM and the GI50 (HGC-27) was 5760 nM. It also gave an IC50 [15] of 1800 nM, a GI50 [16] of over 10000 nM and an IC50 [17] of 6 nM. For the same compound, the GI50 (SGC-7901) was 7280 nM, the GI50 (NCI-H1975) was over 10000 nM and the IC50 [18] was 708 nM. The IC50 [19] was 221 nM, the GI50 (BGC-823) was 8470 nM and the IC50 [20] was 19 nM. The IC50 [21] was 10 nM.
